Laboratory results from patent publication US7897602B2, “Indolinone compounds as kinase inhibitors” (Development Center for Biotechnology, priority 2009, dated 2011).
Where a name gives a salt, the structure may show the parent alone.

Tests used:
Assay type in all cases: biochemical
[1] = target: T1, Aurora A kinase (Homo sapiens, UniProt O14965); assay: Aurora A kinase assay ([γ-33P]ATP, CHOCKtide substrate); settings: for inhibition at 1 µM: 1.0 μM test compound
T1 construct: purchased Upstate
T1 sequence (O14965 1-403): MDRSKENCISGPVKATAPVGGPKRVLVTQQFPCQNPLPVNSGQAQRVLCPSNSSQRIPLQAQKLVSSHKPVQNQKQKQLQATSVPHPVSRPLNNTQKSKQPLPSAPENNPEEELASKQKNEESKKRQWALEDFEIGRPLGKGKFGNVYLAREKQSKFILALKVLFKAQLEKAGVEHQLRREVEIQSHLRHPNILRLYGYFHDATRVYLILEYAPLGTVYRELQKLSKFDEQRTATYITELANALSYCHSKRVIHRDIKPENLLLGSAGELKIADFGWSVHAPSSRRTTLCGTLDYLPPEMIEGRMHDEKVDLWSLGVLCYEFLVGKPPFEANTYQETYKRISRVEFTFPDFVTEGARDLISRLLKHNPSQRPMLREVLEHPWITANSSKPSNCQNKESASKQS
Method in brief: (§1)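 Radiometric filter-binding format: 33P incorporation into CHOCKtide counted after acid stop and filtration. Reactions ran 30 min at 33 °C, Aurora A with 10 μM ATP, Aurora B with 40 μM ATP. IC50 taken as concentration giving half-maximal kinase inhibition.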

[2] = target: T2, Aurora B kinase (Homo sapiens, UniProt Q96GD4); assay: Aurora B kinase assay ([γ-33P]ATP, CHOCKtide substrate); settings: for inhibition at 1 µM: 1.0 μM test compound
T2 construct: purchased Cell signaling
Method in brief: as §1

[3] = target: T3, Flt3 kinase (Homo sapiens, UniProt P36888); assay: Flt3 kinase assay (33P incorporation into Poly(Glu-Tyr)); settings: 100 nM test compound; read-out: Inhibition at 100 nM (%) Flt-3
T3 construct: recombinant N-terminal 6×His-tagged Flt3 kinase domain construct expressed from baculovirus; 6xHis (N); made in house
T3 sequence (P36888 610-943 limits assumed): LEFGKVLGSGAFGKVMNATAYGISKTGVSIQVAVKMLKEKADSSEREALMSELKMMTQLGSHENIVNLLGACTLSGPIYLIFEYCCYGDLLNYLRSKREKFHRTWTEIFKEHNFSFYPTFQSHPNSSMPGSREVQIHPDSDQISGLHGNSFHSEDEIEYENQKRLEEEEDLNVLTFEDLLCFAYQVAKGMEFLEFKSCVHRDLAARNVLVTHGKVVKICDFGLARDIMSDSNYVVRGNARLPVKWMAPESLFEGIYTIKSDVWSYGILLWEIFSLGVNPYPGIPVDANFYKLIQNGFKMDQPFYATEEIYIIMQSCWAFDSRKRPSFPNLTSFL
Method in brief: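 Baculovirus-expressed His-tagged Flt3 kinase domain (5 ng) with Poly(Glu-Tyr) 4:1 substrate, 100 μM ATP plus [33P]-γ-ATP, in MOPS pH 7.0 buffer, 30 min at 30 °C. Compound tested at a single 100 nM concentration; filter-bound radioactivity counted and percent inhibition calculated relative to DMSO control.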

T2 sequence (Q96GD4 whole entry): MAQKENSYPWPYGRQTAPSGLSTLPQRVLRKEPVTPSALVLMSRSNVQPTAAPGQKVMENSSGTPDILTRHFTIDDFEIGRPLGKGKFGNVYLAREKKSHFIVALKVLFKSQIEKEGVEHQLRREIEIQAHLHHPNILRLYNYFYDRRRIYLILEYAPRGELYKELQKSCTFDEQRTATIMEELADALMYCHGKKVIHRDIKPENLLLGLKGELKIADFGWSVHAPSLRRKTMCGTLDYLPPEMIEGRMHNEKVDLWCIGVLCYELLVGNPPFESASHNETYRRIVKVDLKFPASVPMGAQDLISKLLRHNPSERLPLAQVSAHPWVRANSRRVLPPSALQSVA

| Structure (SMILES) | IC50 [1] | inhibition at 1 µM [1] | inhibition at 1 µM [2] | inhibition at 0.1 µM [3] | IC50 [2] |
| --- | --- | --- | --- | --- | --- |
| CCOC(=O)CCc1c(/C=C2\C(=O)Nc3ccc(NC(=O)c4ccccc4)cc32)[nH]c2c1C(=O)CCC2 [DCB-70096, (Z)-5-benazmido-3-((3-(3-ethoxy-3-oxopropyl)-4-oxo-4,5,6,7-tetrahydro-1H-indol-2-yl)methylene)indolin-2-one] | – | 38.6% | 15.1% | 5.9% | – |
| O=C(O)CCc1c(/C=C2\C(=O)Nc3ccc(NC(=O)c4ccccc4)cc32)[nH]c2c1C(=O)CCC2 [DCB-70097, (Z)-5-benazmido-3-((3-carboxyethyl-4-oxo-4,5,6,7-tetrahydro-1H-indol-2-yl)methylene)indolin-2-one] | – | 64.7% | 14.2% | 2% | – |
| CCOC(=O)CCc1c(/C=C2\C(=O)Nc3cc(-c4ccc(F)cc4)ccc32)[nH]c2c1C(=O)CCC2 [DCB-70098, (Z)-6-(4-fluorophenyl)-3-((3-(3-ethoxy-3-oxopropyl)-4-oxo-4,5,6,7-tetrahydro-1H-indol-2-yl)methylene)indolin-2-one] | – | 4% | 19.5% | 4.8% | – |
| O=C(O)CCc1c(/C=C2\C(=O)Nc3cc(-c4ccc(F)cc4)ccc32)[nH]c2c1C(=O)CCC2 [DCB-70099, (Z)-6-(4-fluorophenyl)-3-((3-carboxyethyl-4-oxo-4,5,6,7-tetrahydro-1H-indol-2-yl)methylene)indolin-2-one] | – | 47.5% | 30% | 6.9% | – |
| CCOC(=O)CCc1c(/C=C2\C(=O)Nc3cc(-c4cc(F)cc(F)c4)ccc32)[nH]c2c1C(=O)CCC2 [DCB-70100, (Z)-6-(3,5-difluorophenyl)-3-((3-(3-ethoxy-3-oxopropyl)-4-oxo-4,5,6,7-tetrahydro-1H-indol-2-yl)methylene)indolin-2-one] | – | 9.9% | 13.2% | 12.5% | – |
| O=C(O)CCc1c(/C=C2\C(=O)Nc3cc(-c4cc(F)cc(F)c4)ccc32)[nH]c2c1C(=O)CCC2 [DCB-70101, (Z)-6-(3,5-difluorophenyl)-3-((3-carboxyethyl-4-oxo-4,5,6,7-tetrahydro-1H-indol-2-yl)methylene)indolin-2-one] | – | 38.5% | 17.7% | 8.5% | – |
| CCOC(=O)CCc1c(/C=C2\C(=O)Nc3ccc(NS(=O)(=O)c4ccccc4)cc32)[nH]c2c1C(=O)CCC2 [DCB-70102, (Z)-5-phenylsulfonamido-3-((3-(3-ethoxy-3-oxopropyl)-4-oxo-4,5,6,7-tetrahydro-1H-indol-2-yl)methylene)indolin-2-one] | 83.5 nM | 88.8% | 74.3% | 75.9% | 214 nM |
| CCOC(=O)CCc1c(/C=C2\C(=O)Nc3ccc(-c4ccc(F)cc4)cc32)[nH]c2c1C(=O)CCC2 [DCB-70108, (Z)-5-(4-fluorophenyl)-3-((3-(3-ethoxy-3-oxopropyl)-4-oxo-4,5,6,7-tetrahydro-1H-indol-2-yl)methylene)indolin-2-one] | – | 7.5% | 6.8% | 11.8% | – |
| O=C(O)CCc1c(/C=C2\C(=O)Nc3ccc(-c4ccc(F)cc4)cc32)[nH]c2c1C(=O)CCC2 [DCB-70109, (Z)-5-(4-fluorophenyl)-3-((3-carboxyethyl-4-oxo-4,5,6,7-tetrahydro-1H-indol-2-yl)methylene)indolin-2-one] | – | 69.1% | 1.8% | 19.2% | – |
| CNS(=O)(=O)c1ccc2c(c1)/C(=C/c1[nH]c3c(c1CCC(=O)N1CCN(C)CC1)C(=O)CCC3)C(=O)N2 [DCB-70117] | – | 34.9% | 5.3% | 48.3% | – |
| CCOC(=O)CCc1c(/C=C2\C(=O)Nc3ccc(NS(=O)(=O)CC)cc32)[nH]c2c1C(=O)CCC2 [DCB-70118, (Z)-5-ethylsulfonamido-3-((3-(3-ethoxy-3-oxopropyl)-4-oxo-4,5,6,7-tetrahydro-1H-indol-2-yl)methylene)indolin-2-one] | – | 81.2% | 3.2% | 12.7% | – |
| CN1CCN(C(=O)CCc2c(/C=C3\C(=O)Nc4ccc(S(=O)(=O)N5CCCC5)cc43)[nH]c3c2C(=O)CCC3)CC1 [DCB-70120, (Z)-3-((3-(3-(4-methylpiperazin-l-yl)-3-oxopropyl)-4-oxo-4,5,6,7-tetrahydro-1H-indol-2-yl)methylene)-5-(pyrrolidin-1-ylsulfonyl)indolin-2-one] | – | 50.5% | 21.5% | 31.2% | – |

Other lines, results leading:

| IC50 [1] | inhibition at 1 µM [1] | inhibition at 1 µM [2] | inhibition at 0.1 µM [3] | IC50 [2] | Structure (SMILES) |
| --- | --- | --- | --- | --- | --- |
| 61.2 nM | 94.3% | 34.1% | 27.2% | – | NS(=O)(=O)c1ccc2c(c1)/C(=C/c1[nH]c3c(c1CCC(=O)O)C(=O)CCC3)C(=O)N2 [DCB-70095, (Z)-5-sulfamoyl-3-((3-carboxyethyl-4-oxo-4,5,6,7-tetrahydro-1H-indol-2-yl)methylene)indolin-2-one] |
| 12.3 nM | 98.9% | 80.1% | 44.7% | 156 nM | O=C(O)CCc1c(/C=C2\C(=O)Nc3ccc(NS(=O)(=O)c4ccccc4)cc32)[nH]c2c1C(=O)CCC2 [DCB-70103, (Z)-5-phenylsulfonamido-3-((3-carboxyethyl-4-oxo-4,5,6,7-tetrahydro-1H-indol-2-yl)methylene)indolin-2-one] |
| 252 nM | 83.6% | 12.8% | 13.9% | – | CC(=O)Nc1ccc2c(c1)/C(=C/c1[nH]c3c(c1CCC(=O)O)C(=O)CCC3)C(=O)N2 [DCB-70104, (Z)-5-acetamido-3-((3-carboxyethyl-4-oxo-4,5,6,7-tetrahydro-1H-indol-2-yl)methylene)indolin-2-one] |
| 8.1 nM | 99% | 70.6% | 10.2% | 292 nM | O=C(O)CCc1c(/C=C2\C(=O)Nc3ccc(S(=O)(=O)N4CCc5ccccc54)cc32)[nH]c2c1C(=O)CCC2 [DCB-70106, (Z)-5-(indolin-1-ylsulfonyl)-3-((3-carboxyethyl-4-oxo-4,5,6,7-tetrahydro-1H-indol-2-yl)methylene)indolin-2-one] |
| – | 36% | 23.7% | 10.8% | – | CN1CCN(S(=O)(=O)c2ccc3c(c2)/C(=C/c2[nH]c4c(c2CCC(=O)O)C(=O)CCC4)C(=O)N3)CC1 [DCB-70107, (Z)-5-(4-methylpiperazin-1-ylsunfonyl)-3-((3-carboxyethyl-4-oxo-4,5,6,7-tetrahydro-1H-indol-2-yl)methylene)indolin-2-one hydrochloride] |
| 14 nM | 99.9% | 60.7% | 12% | 494 nM | O=C(O)CCc1c(/C=C2\C(=O)Nc3ccc(S(=O)(=O)N4CCCCC4)cc32)[nH]c2c1C(=O)CCC2 [DCB-70114, (Z)-5-(piperidin-1-ylsulfonyl)-3-((3-carboxyethyl-4-oxo-4,5,6,7-tetrahydro-1H-indol-2-yl)methylene)indolin-2-one] |
| – | 99.4% | 32.5% | 26.8% | – | C=CS(=O)(=O)c1ccc2c(c1)/C(=C/c1[nH]c3c(c1CCC(=O)O)C(=O)CCC3)C(=O)N2 [DCB-70115, (Z)-5-vinylsulfonyl-3-((3-carboxyethyl-4-oxo-4,5,6,7-tetrahydro-1H-indol-2-yl)methylene)indolin-2-one] |
| – | 100% | 7% | 19.4% | – | CCS(=O)(=O)c1ccc2c(c1)/C(=C/c1[nH]c3c(c1CCC(=O)O)C(=O)CCC3)C(=O)N2 [DCB-70116, (Z)-5-ethylsulfonyl-3-((3-carboxyethyl-4-oxo-4,5,6,7-tetrahydro-1H-indol-2-yl)methylene)indolin-2-one] |
| – | 95.4% | 7.3% | -3.9% | – | CCS(=O)(=O)Nc1ccc2c(c1)/C(=C/c1[nH]c3c(c1CCC(=O)O)C(=O)CCC3)C(=O)N2 [DCB-70119, (Z)-5-ethylsulfonamido-3-((3-carboxyethyl-4-oxo-4,5,6,7-tetrahydro-1H-indol-2-yl)methylene)indolin-2-one] |
